Source: ChEMBL document CHEMBL2424513, “Design, synthesis and biological studies of survivin dimerization modulators that prolong mitotic cycle” (Bioorg Med Chem Lett, 2013)
Activity calls are given as the source filed them. No cut-off for these calls is given here.

Key:
[1] = target: Baculoviral IAP repeat-containing protein 5 (Homo sapiens) (UniProt O15392); experiment: Modulation of GFP-tagged survivin dimerization in HUVEC assessed as defect in mitotic progression at 10 nM after 48 hrs by real-time video microscopy
Baculoviral IAP repeat-containing protein 5 (Homo sapiens), sequence (O15392 whole entry, the tested form may be a part): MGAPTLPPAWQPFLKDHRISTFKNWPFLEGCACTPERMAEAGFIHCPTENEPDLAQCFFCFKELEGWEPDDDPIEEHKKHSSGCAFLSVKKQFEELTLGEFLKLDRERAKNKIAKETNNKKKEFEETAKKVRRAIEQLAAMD

[2] = target: Baculoviral IAP repeat-containing protein 5 (Homo sapiens) (UniProt O15392); experiment: Modulation of GFP-tagged survivin dimerization in HUVEC assessed as reduction in cell number at 50 to 100 nM by real-time video microscopy; conditions: TDE = time-dependent effect
[3] = target: Baculoviral IAP repeat-containing protein 5 (Homo sapiens) (UniProt O15392); experiment: Modulation of GFP-tagged survivin dimerization in HUVEC assessed as distorted, diffused or decondensed CPC organization at 50 to 100 nM after 48 hrs by real-time video microscopy relative to control
[4] = target: Baculoviral IAP repeat-containing protein 5 (Homo sapiens) (UniProt O15392); experiment: Modulation of GFP-tagged survivin dimerization in HUVEC assessed as defect in mitotic progression at 50 to 100 nM after 48 hrs by real-time video microscopy relative to control
[5] = target: Baculoviral IAP repeat-containing protein 5 (Homo sapiens) (UniProt O15392); experiment: Modulation of GFP-tagged survivin dimerization in human PC3 cells assessed as distorted, diffused or decondensed CPC organization at 10 nM after 72 hrs by real-time video microscopy relative to control; type: cell-based; conditions: PC-3
[6] = target: Baculoviral IAP repeat-containing protein 5 (Homo sapiens) (UniProt O15392); experiment: Modulation of GFP-tagged survivin dimerization in human PC3 cells assessed as defect in mitotic progression at 10 nM after 72 hrs by real-time video microscopy; type: cell-based; conditions: PC-3
[7] = target: Baculoviral IAP repeat-containing protein 5 (Homo sapiens) (UniProt O15392); experiment: Modulation of GFP-tagged survivin dimerization in HUVEC assessed as reduction in cell number at 50 to 100 nM after 48 hrs by real-time video microscopy relative to control
[8] = target: Baculoviral IAP repeat-containing protein 5 (Homo sapiens) (UniProt O15392); experiment: Modulation of GFP-tagged survivin dimerization in human PC3 cells assessed as defect in mitotic progression at 50 to 100 nM after 72 hrs by real-time video microscopy; type: cell-based; conditions: PC-3
[9] = target: Baculoviral IAP repeat-containing protein 5 (Homo sapiens) (UniProt O15392); experiment: Modulation of GFP-tagged survivin dimerization in human PC3 cells assessed as distorted, diffused or decondensed CPC organization at 50 to 100 nM after 72 hrs by real-time video microscopy relative to control; type: cell-based; conditions: PC-3
[10] = target: Baculoviral IAP repeat-containing protein 5 (Homo sapiens) (UniProt O15392); experiment: Modulation of GFP-tagged survivin dimerization in HUVEC assessed as reduction in cell number after 48 hrs by real-time video microscopy
[11] = target: Baculoviral IAP repeat-containing protein 5 (Homo sapiens) (UniProt O15392); experiment: Modulation of GFP-tagged survivin dimerization in human PC3 cells assessed as reduction in cell number at 50 to 100 nM after 72 hrs by real-time video microscopy relative to control; type: cell-based; conditions: PC-3
[12] = target: Baculoviral IAP repeat-containing protein 5 (Homo sapiens) (UniProt O15392); experiment: Modulation of GFP-tagged survivin dimerization in HUVEC assessed as distorted, diffused or decondensed CPC organization at 10 nM after 48 hrs by real-time video microscopy relative to control
[13] = target: Baculoviral IAP repeat-containing protein 5 (Homo sapiens) (UniProt O15392); experiment: Modulation of GFP-tagged survivin dimerization in HUVEC assessed as time length of mitosis at 100 nM after 48 hrs by real-time video microscopy (reference value: 51.2 +/- 2.3 mins)

Structure (SMILES) | Activity [1] | Activity [2] | Activity [3] | Activity [4] | Activity [5] | Activity [6] | Activity [7] [%] | Activity [8] | Activity [9] | Activity [10] | Activity [11] [%] | Activity [12] | fold change (FC) [4] | TIME [13] [h] | fold change (FC) [8]
N#Cc1c(-c2cccc(OCc3ccccc3)c2)cc(-c2cc(Cl)cc(I)c2O)[nH]c1=O | inactive | tde | Active | Active | inactive | inactive | 50 | Active | Active | Dose-dependent effect | 50 | inactive |  |  | 
N#Cc1c(-c2cc(OCc3ccccc3)cc(OCc3ccccc3)c2)cc(-c2cc(Cl)ccc2O)[nH]c1=O | inactive | tde | Active | inactive | inactive | inactive |  | inactive | Active | Dose-dependent effect |  | inactive | 2 | 2.57 | 2
N#Cc1c(-c2ccccc2)cc(-c2cc(Cl)ccc2O)[nH]c1=O |  |  |  | inactive |  |  |  | inactive |  |  |  |  |  | 1.04 | 
